Assays:
[1] = Phase 1 clinical trial, plasma olanzapine pharmacokinetics; settings: human, in vivo
Procedure: Randomization for Periods 1 and 2 was performed for each subject on Day 1.
In Period 1, subjects were assigned to 1 of 3 cohorts (n=12 per cohort). […] Dose administration occurred at Visit 2 on Day 1 (relative to each cohort). Each cohort was scheduled to allow time for Period 2 safety assessments to occur prior to dose escalation in the next cohort period 2 dosing. Subjects remained confined to the study site for 72 hours after dosing. Subjects returned to the study site on Days 5 and 6 (Visits 3 and 4) for follow-up assessments.
In Period 2, subjects returned to the study site after a washout period of at least 14 days. Subjects from each Period 1 cohort received a single dose of INP105 (5, 10 or 15 mg) or placebo in a 9:3 ratio, as outlined in Table 11. Dose administration occurred on Day 15. (Dosing was permitted to occur later than the calendar Day 15 as required for scheduling (up to 2 days) but not before Day 15.) Ascending-dose levels of INP105 (5, 10 or 15 mg) were administered to ascending cohort numbers as follows:
The following pharmacokinetic parameters were determined: Cmax, Tmax, Tlast, AUClast, and t1/2 where possible.

rat = assay: 14-day sub-chronic toxicity in rat with nasal olanzapine delivery; type: in vivo; settings: nasal delivery (data not shown)
[2] = oral olanzapine tablets or disintegrating tablets, previously reported; cited from earlier work

Compound: Cc1cc2c(s1)Nc1ccccc1N=C2N1CCN(C)CC1 [olanzapine]
- Tmax ([1]; im, 5 mg): 19.8 to 21.6 min
- Tmax ([1]; inhaled or intranasal): 9.6 to 10.2 min
- Cmax ([1]; inhaled or intranasal, 15 mg): ≥ 30 ng/mL
- Tmax ([1]; po, 10 mg): 120 min
- macroscopic or microscopic findings (rat): No macroscopic or microscopic findings
- time to peak plasma concentration (Tmax) [2]: 300 to 480 min

From patent US11278492B2 (priority 2018, dated 2022)
